Patent US20140161767A1, “FOLLICLE-STIMULATING HORMONE (FSH)/LYTIC DOMAIN FUSION CONSTRUCTS AND METHODS OF MAKING AND USING SAME” (BOARD OF SUPERVISORS OF LOUISIANA STATE UNIVERSITY AND …, priority 2012, published 2014)

Tests used:
MDA-MB-435S xenograft = assay: MDA-MB-435S xenograft, minimal effective dose, once weekly for 3 weeks; assay type: in vivo, mice
Protocol: To determine the minimal effective dose necessary to reduce MDA-MB-435S xenograft weights in a single dose regimen, Nu/Nu female mice, outbred strain, age 5 weeks (Charles River), were injected (s.c.) into the interscapular region with a MDA-MB-435S (passage #249)/Matrigel suspension (2.4×10^6 cells/mouse) [Leuschner 2006].
Each group consisted of 16 mice, which were injected once a week for 3 weeks. A group of 16 mice was sacrificed at the time of treatment start to serve as baseline. Saline injections served as control groups. During the entire study tumor volumes were recorded twice weekly.
Treatment started on day 16 after tumor cell injection when the tumors were established and continued on days 23 and 30. All remaining mice were necropsied 37 days after tumor cell injection.
Treatment response was determined by tumor weights and tumor weight change at necropsy compared to saline controls and untargeted Phor18 treatment. Primary tumors were collected, weighed and prepared for histological evaluation in formalin fixation with […]. Statistical evaluation of data sets were conducted in GraphPad Prizm 4 and significance calculated by Wilcoxon signed-rank test.

PC-3 xenograft = assay: PC-3 prostate cancer xenograft, Phor18-LHRH; assay type: in vivo, mice; settings: for Overall efficacy in PC-3 xenografts: mouse, in vivo
Protocol: PC-3 xenografts untreated cause significant weight loss in mice.
In brief, Nu/Nu male mice, outbred strain, age 6 weeks (Charles River) were injected subcutaneously with a PC-3 cells/Matrigel suspension (1×10^6 cells/mouse). Treatment was started on day 15 after tumor cell injection when the tumors were established and continued on days 22 and 29. The doses for the 3 weekly injections were 2, 0.2 and 0.02 mg/kg body weight, given as a bolus single intravenous injection via lateral tail vein.
A group of 12 tumor bearing mice was sacrificed on day 15 and served as baseline group. All mice were necropsied 35 and 36 days after tumor cell injection. Tumor volumes and bodyweights were recorded twice weekly during the study, as well as overall veterinarian examination of mice was conducted.
Primary tumors, liver, kidney, pancreas, heart, lung, and spleen were collected, fixed in formalin and prepared for histological evaluation. Tumor weights were measured at necropsy, part of the tumors were frozen at 80° C. for LH/CG and LHRH receptor assay determination.

MDA-MB 435S cells = assay: In vitro kinetics of cytotoxicity (MTT), MDA-MB-435S cells; assay type: cell-based, human; settings: all cell lines presenting functional LHRH receptors (MDA-MB-435, MCF-7, OVCAR-3)
Excerpt: Membranes of non-cancerous cell lines are neutral and are resistant to cytolytic peptides, in contrast to cancer cell lines, which have a high phosphatidic acid content in their outer membrane.
The breast cancer cell lines studied were MDA-MB-4355 (estrogen receptor alpha negative), MCF-7 and T47D (estrogen receptor alpha positive), ovarian cancer cell lines (OVCAR-3 and SKOV-3), prostate cancer (LNCaP), the non-malignant breast epithelial cell line MCF-10A and the mouse fibroblast cell line NIH:3T3.
Cells were seeded into 96 well plates at a densitiy of 10,000 cells/well. […] Controls contained USP saline or 0.1% TritonX-100™ as reference for 0 and 100% cell death, respectively. […] Cell viability was assessed through formazan conversion assay (MTT assay, (CellTiter 96 Aqueous One, Promega # G3582). Formazan conversion was determined using a BioRad Benchmark Plus microplate spectrophotometer dual wavelengths at 490/630 nm at room temperature).
Data were calculated as fraction of absorption in TritonX-100™ containing wells representing 100% cell death versus 0% cell death in saline containing wells. Cytotoxicity was determined as IC50 using GraphPad Prism version 5.01 for Windows, GraphPad Software, San Diego Calif. […] 4 wells of each individual set of two 96 well plates were compared and analyzed. Statistical analysis for significance was determined by a two-tailed Student's T-test.

OVCAR-3 xenograft = assay: OVCAR-3 ovarian cancer xenograft; assay type: in vivo; settings: for Tumor weights at necropsy: Phor18-LHRH: 2 and 0.2 mg/kg vs saline and Phor18, p<0.05; for Tumor volume: during treatment
Protocol: The xenograft model of the OVCAR-3 human ovarian cancer cell line that present functional LHRH receptors was used in this study. OVCAR-3 represents a slow growing xenograft model and secretes the tumor marker (cancer antigen 125, or CA125). It's secretion can be used as treatment response and is a measure of drug activity.
In brief, Nu/Nu female mice, inbred strain, age 5 weeks (Harlan-Sprague Dawley) were injected subcutaneously with a NIH:OVCAR-3 cells/Matrigel suspension (4.6×10^6 cells/mouse). Treatment was started on day 33 after tumor cell injection when the tumors were established and continued on days 41 and 47. The doses for the 3 weekly injections were 0.02, 0.2 and 2 mg/kg body weight, given as a single bolus intravenous injection via lateral tail vein administered once a week for three weeks on days 33, 41 and 47. Necropsies were conducted on day 52. Data are presented as mean SEM. Arrows show dosing.
A group of 9 tumor bearing mice was sacrificed on day 33 and served as baseline group. All mice were necropsied 51-52 days after tumor cell injection. Tumor volumes and bodyweights were recorded twice weekly during the study, as well as overall veterinarian examination of mice was conducted.
Primary tumors, liver, kidney, pancreas, heart, lung, and spleen were collected, fixed in formalin and prepared for histological evaluation. Tumor weights were measured at necropsy, part of the tumors were frozen at −80° C. for LH/CG and LHRH receptor assay determination.
As a biomarker for drug activity, CA125 was determined in serum, collected from each individual mouse at necropsy using a Enzyme Linked Immunoassay for quantitative determination of ovarian cancer antigen CA125 (Assay kit Genway, Biotech, Inc. San Diego, Calif., Catalog #40-052-115009, # BC-1013 according to the manufacturer).
LHRH receptor levels were assessed from formalin fixed tumors. Quantitative immunoperoxidase image analysis was conducted with the Ventana Image Analysis System (VIAS) adjunctive computer assisted image analysis system functionally connected to an interactive microscope (Axio Imager). The quantitative analysis was conducted with the program for quantification of Her2/neu receptor that included morphometric and colorimetric analysis. Receptor status results were reported as percentage of cells showing positive staining of the LHRH receptors under the following criteria: 0 non-immunoreactive, 1+: 1-25% positive, 2+: 26 50% positive, 3+: 51-75% positive cells.

| Substance | Tumor volumes and tumor weights (MDA-MB-435S xenograft; mouse, in vivo) | Overall efficacy in PC-3 xenografts (PC-3 xenograft) | Incubation time to maximum effect (MDA-MB 435S cells) [h] | Tumor weights at necropsy (OVCAR-3 xenograft) | Tumor volume (OVCAR-3 xenograft; listed as CLIP71) | Remarks / histological evaluation of tumors (MDA-MB-435S xenograft; hematoxylin/eosin) | Lowest dose with significant necrosis in tumors (MDA-MB-435S xenograft; mouse, in vivo) [mg/kg] | Lowest concentration with tumor volume reduction compared to saline controls and CLIP71 (PC-3 xenograft; 22 days after tumor cell injection, p<0.001) [mg/kg] | Tumor weights compared to saline controls and CLIP-71 (PC-3 xenograft; all treated groups) | Tumor volume (PC-3 xenograft; during treatment) | Lowest concentration with tumor volume reduction compared to baseline (OVCAR-3 xenograft; 42 days after tumor cell injection, p<0.001) [mg/kg] | Tumor volume (OVCAR-3 xenograft) | Dose with greatest tumor regression compared to treatment start (OVCAR-3 xenograft; p<0.03 vs baseline) [mg/kg] |
| --- | --- | --- | --- | --- | --- | --- | --- | --- | --- | --- | --- | --- | --- |
| KFAKFAK KFAKFAK KFAK [Phor18] | did not decrease tumor weights or destroy tumor tissue | ineffective | 24 | not effective | no reduction |  |  |  |  |  |  |  |  |
| KFAKFAKKFAKFAKKFAKQHWSYGLRPG [Phor18-LHRH] |  | effective in arresting tumor growth | 0.5 to 1 | Reduced tumor weights |  | significant necrosis | 0.0002 | 0.002 | significantly reduced | decreased | 0.2 | decreased | 0.2 |
